Measurements taken from ChEMBL document CHEMBL1130902, “Novel angucycline compound with both antigastrin- and gastric mucosal protective-activities” (1998).

Legend:
Type in all cases: functional
Rattus norvegicus [1] = test: Percent inhibition against pentagastrin-stimulated acid secretion upon intraperitoneal administration of 10 mg/kg dose to urethane anesthetized rats.; details: ip
Rattus norvegicus [2] = test: Percentage dose required to prevent lesion formation in gastric mucosa of unanesthetized rats upon intraperitoneal administration of 1 mg/kg dose in the HCl/ethanol-induced lesion model; details: ip
Rattus norvegicus [3] = test: Percentage dose required to prevent lesion formation in gastric mucosa of unanesthetized rats upon intraperitoneal administration of 10 mg/kg dose in the HCl/ethanol-induced lesion model; details: ip
Rattus norvegicus [4] = test: Percentage dose required to prevent lesion formation in gastric mucosa of unanesthetized rats upon intraperitoneal administration 30 min prior to an oral dose of HCl/ethanol.
Rattus norvegicus [5] = test: Percentage dose required to prevent lesion formation in gastric mucosa of unanesthetized rats upon intraperitoneal administration of 3 mg/kg dose in the HCl/ethanol-induced lesion model; details: ip
Rattus norvegicus [6] = test: Dose required to prevent lesion formation in gastric mucosa of unanesthetized rats upon subcutaneous administration.

SMILES: CO[C@@H]1C[C@H](O[C@@H]2C=C(C)C[C@@]3(O)[C@H](OC(C)=O)[C@H](O)C4=C(C(=O)c5ccc([C@H]6C[C@@H](O[C@H]7C[C@](C)(O)[C@H](O[C@H]8CC[C@H](NC(N)=O)[C@@H](C)O8)[C@@H](C)O7)[C@H](O)[C@@H](C)O6)c(O)c5C4=O)[C@@]23O)O[C@@H](C)[C@H]1O [COMPOUND P371 A]
- inhibition in vivo at 10 mg/kg (Rattus norvegicus [1]): 61%
- inhibition in vivo at 1 mg/kg (Rattus norvegicus [2]): 52.6%
- inhibition in vivo at 10 mg/kg (Rattus norvegicus [3]): 83.6%
- % dose (Rattus norvegicus [4]): 60%
- inhibition in vivo at 3 mg/kg (Rattus norvegicus [5]): 81.6%

SMILES: COc1ccc2c(c1)c(CC(=O)O)c(C)n2C(=O)c1ccc(Cl)cc1 [INDOMETHACIN]
- Dose (Rattus norvegicus [6]): 25 mg/kg
- inhibition in vivo at 1 mg/kg (Rattus norvegicus [2]): 57%
- inhibition in vivo at 10 mg/kg (Rattus norvegicus [3]): 72.8%
- inhibition in vivo at 3 mg/kg (Rattus norvegicus [5]): 64.9%
